Data as given in patent US11680885B2, “Method, process, composition and kit for measuring concentration of molecules dissolved in the continuous phase of a colloid” (UNIVERSIDAD TÉCNICA FEDERICO SANTA MARÍA, priority 2017, dated 2023).

Experiment: Measurement of concentration of molecules dissolved in the continuous phase of the standard AuNP@MUA colloid (centrifugation, RP-HPLC with UV-visible detection)
Format: physicochemical
Details: n=3; for concentration in the control samples, equivalent to the continuous phase of the colloid: control samples: particle-free solution extracted from the colloid, 2.00 μM molecule added; for concentration of molecules dissolved in the continuous phase of the standard AuNP@MUA colloid: test samples, after incorporating 2.00 μM of the molecule into the colloid, centrifuged 24,000×g 15 min, average
Experimental: In general terms, the concentration of molecules dissolved in a fraction of the particle free colloid is measured. To evaluate this, in a first part the method obtains a test sample and a control sample. The test sample contains molecules dissolved in a colloid, and the control sample contains the same concentration of molecules dissolved in a particle-free solution extracted from the same colloid used to obtain the test sample. […] Subsequently, the samples are exposed to a condition that allows the particles of the test sample to be concentrated. […] Then, a particle-free volume is recovered from the test sample. The fraction recovered is equivalent to the continuous phase of the colloid and includes the effect of the interaction between molecules and particles. Finally, the concentration of molecules dissolved in the continuous phase of the colloid is measured using equation 1:
[formula] where [FC] corresponds to the concentration of molecules dissolved in the continuous phase of a colloid, [ ]0 corresponds to the value of the concentration of molecules used during the sampling steps, @mp corresponds to the empirical value of a parameter proportional to the number of molecules contained in a volume of particle-free test sample, and @mc corresponds to the empirical value of the same parameter proportional to the number of molecules contained in a volume of control sample. The concentration value obtained from this equation is equivalent to the concentration of molecules dissolved in the continuous phase of the colloid. […]
[formula] • where [FC] corresponds to the concentration of molecules dissolved in the continuous phase of a colloid, [ ]0 corresponds to the value of the concentration of molecules used during the sampling steps, @mp corresponds to the empirical value of a parameter proportional to the number of molecules contained in a volume of particle-free test sample obtained in step f), and @mc corresponds to the empirical value of the same parameter, but measured in the control sample obtained in step g).

SMILES	concentration in the control samples, equivalent to the continuous phase of the colloid [nM]	concentration of molecules dissolved in the continuous phase of the standard AuNP@MUA colloid [nM]
CN(C)c1ccc(N=Nc2ccc(S(=O)(=O)[O-])cc2)cc1.[Na+] [methyl orange]	2000	2000
CN(C)c1ccc2nc3ccc(=[N+](C)C)cc-3sc2c1 [methylene blue]	2000	1170
